In publication PMC10388311, “Innovative Strategy toward Mutant CFTR Rescue in Cystic Fibrosis: Design and Synthesis of Thiadiazole Inhibitors of the E3 Ligase RNF5” (Journal of Medicinal Chemistry, 2023):
Entries after “also recorded” stand apart in the source; their conditions may differ.

Columns and labels:
[1] = biological target: T1, recombinant RNF5 (1–117) protein (Homo sapiens, UniProt Q99942); experiment: WaterLOGSY and STD NMR binding experiments; conditions: compound 50 μM, 3 μM RNF5 (1–117)
T1 construct: human RNF5 protein (aa 1–117) truncated to exclude the transmembrane domains; GST (followed by TEV protease site) (N, cleaved yes); host or cells: Escherichia coli BL21(DE3)
Source text: The bindings of compounds 12, 40, and 42 were initially evaluated by MicroScale Thermophoresis (MST) using a purified recombinant truncated form of RNF5 (aa 1–117), lacking the C-terminal transmembrane domains. The protein was covalently labeled with a red dye (NHS) on the primary amines (lysine residues). […] NMR experiments on the recombinant RNF5 form were further performed to test the direct binding of the three compounds to the protein with a more sensitive, label-free, independent approach. Analogs 12, 40, and 42 were tested at 50 μM in the absence and in the presence of 3 μM RNF5 (1–117) protein. […] Indeed, for all three compounds, the NMR signals of their methyls are present in the STD spectra, and in the WaterLOGSY spectra, their signals change from negative to positive in the presence of the protein, indisputably highlighting the formation of compound–protein binding events. […] It has to be noted that NMR is a very sensitive technique that allows detecting also compounds weakly binding to their target protein independent of the possible downstream biological effects. […]
All the NMR experiments were recorded at 298 K using a 5 mm CryoProbe QCI ^1H/^19F–^13C/^15N–D quadruple resonance, a shielded z-gradient coil, and an automatic sample changer SampleJet NMR system with temperature control. […] For all samples, a 1D ^1H NMR experiment was recorded, the water suppression was obtained using the standard NOESY (nuclear Overhauser effect spectroscopy) preset Bruker pulse sequence, with 64k data points, a spectral width (sw) of 30 ppm, 64 scans, acquisition time (aq) of 1.835 s, a relaxation delay (d1) of 4 s, and a mixing time of 10 ms. […] WaterLOGSY experiments were recorded with the same parameters used in solubility assays, but with a higher number of scans (512); STD experiments were recorded with 128 scans, with two on (0.7 and 1 ppm) and one off (−50 ppm) resonance spectra, a Gaussian-shaped train pulse of 50 ms each was employed, with a total saturation time of the protein envelope of 5, 3, 2, 1.5, 1, or 0.5 s. […]

[2] = biological target: T2, recombinant truncated RNF5 (aa 1–117) (Homo sapiens, UniProt Q99942); experiment: MicroScale Thermophoresis (MST) binding check; conditions: RED-NHS labeled RNF5 (aa 1–117); compound at maximum concentration allowed by solubility (12: 100 M [sic])
T2 construct: human RNF5 protein (aa 1–117) truncated to exclude the transmembrane domains; GST (followed by TEV protease site) (N, cleaved yes); host or cells: Escherichia coli BL21(DE3)
Source text: The bindings of compounds 12, 40, and 42 were initially evaluated by MicroScale Thermophoresis (MST) using a purified recombinant truncated form of RNF5 (aa 1–117), lacking the C-terminal transmembrane domains. The protein was covalently labeled with a red dye (NHS) on the primary amines (lysine residues). […] NMR experiments on the recombinant RNF5 form were further performed to test the direct binding of the three compounds to the protein with a more sensitive, label-free, independent approach. Analogs 12, 40, and 42 were tested at 50 μM in the absence and in the presence of 3 μM RNF5 (1–117) protein. […] Indeed, for all three compounds, the NMR signals of their methyls are present in the STD spectra, and in the WaterLOGSY spectra, their signals change from negative to positive in the presence of the protein, indisputably highlighting the formation of compound–protein binding events. […] It has to be noted that NMR is a very sensitive technique that allows detecting also compounds weakly binding to their target protein independent of the possible downstream biological effects. Indeed, we can speculate that compounds 40 and 42 may bind to RNF5 without inhibiting its ubiquitin ligase activity, thus not leading to mutant CFTR rescue. These compounds could even act as RNF5 activators, similar to analog-1.
A construct coding for human RNF5 protein (aa 1–117) truncated to exclude the transmembrane domains, with an N-terminal GST-tag followed by the recognition site for TEV protease (pET vector backbone), was purchased from CliniSciences. A similar construct was recently described in the work of Ruan et al.[44] […]
Purified RNF5 was labeled using a Monolith protein labeling kit RED-NHS 2nd generation (NanoTemper Technologies, München, Germany) following manufacturer’s instructions. Labeled protein (5 nM) was first tested in a pre-test assay for optimal fluorescence, absence of aggregation, and sticking to capillaries using MST buffer [PBS, 0.05% Tween-20, 0.1% PEG-8000, 1 μM ZnCl2] with or without 1 mM DTT. […]

T1 sequence (Q99942 1-117): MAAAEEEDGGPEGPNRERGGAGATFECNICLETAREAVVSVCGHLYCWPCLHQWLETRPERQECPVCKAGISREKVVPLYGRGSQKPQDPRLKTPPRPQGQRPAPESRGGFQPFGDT
T2 sequence (Q99942 1-117): as above

Row | binding to RNF5 by WaterLOGSY and STD NMR [1] | direct binding to RNF5 by MST (binding check) [2] | SMILES
1 | bind the recombinant RNF5 protein | observed only for compound 12 | Cc1ns/c(=N\C(=N\c2ccncc2)c2ccccc2)n1Cc1ccccc1 [Compound 40, (E)-N-((Z)-4-Benzyl-3-methyl-1,2,4-thiadiazol-5(4H)-ylidene)-N′-(pyridin-4-yl)benzimidamide]
2 | bind the recombinant RNF5 protein | observed only for compound 12 | Cc1ns/c(=N\c2ccccn2)n1Cc1ccccc1 [Compound 42, (Z)-4-Benzyl-3-methyl-N-(pyridin-2-yl)-1,2,4-thiadiazol-5(4H)-imine]

Row | SMILES | binding to RNF5 by WaterLOGSY and STD NMR [1] | direct binding to RNF5 by MST (binding check) [2]
3 | Cc1ns/c(=N\C(=N\c2ccccc2)c2ccccc2)n1Cc1ccc(C(=O)O)cc1 [Compound 12, 4-(((Z)-3-Methyl-5-(((E)-phenyl(phenylimino)methyl)imino)-1,2,4-thiadiazol-4(5H)-yl)methyl)benzoic Acid] | bind the recombinant RNF5 protein | compound 12 is binding to RNF5; also recorded: evidence of direct binding
